Data on 1 compound can be found in ChEMBL document CHEMBL1201862, “PubChem BioAssay data set” (2004).

Among the test systems are IGROV-1; A498; SR; MOLT-4; NCI-H23; HCC 2998; RPMI-8226; HCT-116; UACC-257; NCI/ADR-RES; NCI-H522; SF-539; 786-0; OVCAR-4; SNB-19; SF-268; K562; HL-60; COLO 205; HCT-15.
Common to all, as to experiment: NCI anticancer screen, dose series, 48 h

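Method: 48-hour compound exposure of cells in 96-well plates, five concentrations, linear interpolation of endpoints. GI50 marks 50% less growth.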 Active and inactive are the calls of the source. No stated cut-off is given here; in the data, active = GI50 up to about 1.1 µM and inactive = higher. Where only a bound is given, the exact number is not on record here.

Turning to `COc1cc([C@@H]2c3[nH]c4ccccc4c3C(Nc3ccc([N+](=O)[O-])cc3)[C@H]3COC(=O)N23)cc(OC)c1O` (stereo not given in full), the GI50 in the assay with IGROV-1 is 406 nM (active); with A498 it was 140 nM (active); in the assay on SR, 48.1 nM (active); in the assay on MOLT-4, 14 nM (active); with NCI-H23, 111 nM (active); in the assay on HCC 2998 it was 392 nM (active). Further, the GI50 in the assay on RPMI-8226 is 65.2 nM (active); in the assay on HCT-116 it was 365 nM (active); in the assay with UACC-257, 857 nM (active); in the assay with NCI/ADR-RES, > 86.3 µM (inactive); with NCI-H522 it was 407 nM (active); with SF-539 it was 124 nM (active). For the same compound, the GI50 in the assay on 786-0 is 177 nM (active); with OVCAR-4 it was 1.74 µM (inactive); in the assay with SNB-19, 127 nM (active); in the assay on SF-268 it was 299 nM (active); in the assay with K562, 179 nM (active); in the assay on HL-60, < 10 nM (active). Besides, the results for the GI50 with COLO 205 and with HCT-15 were 548 nM (active) and 1960 nM, respectively.
